Results published in ChEMBL document CHEMBL3046490, “Evaluation of fungicides to control circular leaf spot of persimmon caused by Mycosphaerella nawae” (Crop Prot, 2011).
Converted amounts (≈) assume the structure as drawn.

Key:
Type in all cases: functional, organism-based
[1] = tested on: Plurivorosphaerella nawae; experiment: Antifungal activity against circular leaf spot causing Mycosphaerella nawae MY1 assessed as inhibition of mycelial growth on potato dextrose agar
[2] = tested on: Plurivorosphaerella nawae; experiment: Antifungal activity against circular leaf spot causing Mycosphaerella nawae MY5 assessed as inhibition of mycelial growth on potato dextrose agar
[3] = tested on: Zasmidium citrigriseum; experiment: Antifungal activity against citrus greasy spot disease caused by Zasmidium citri assessed as inhibition of mycelial growth on potato dextrose agar
[4] = tested on: Monilinia fructicola; experiment: Antifungal activity against Monilinia fructicola isolated from peach fields assessed as mycelial growth inhibition

| SMILES | EC50 [1] [µg/mL] | EC50 [2] [µg/mL] | EC50 [3] [ppm] | EC50 [4] [ppm] |
| --- | --- | --- | --- | --- |
| O=C1C2CC=CCC2C(=O)N1SC(Cl)(Cl)Cl (stereo not given) [CAPTAN] | > 100 | > 100 | – | – |
| N#Cc1c(Cl)c(Cl)c(Cl)c(C#N)c1Cl [CHLOROTHALONIL] | 33.5 (≈ 126 µM) | 17 (≈ 63.9 µM) | – | – |
| Cc1cc(C2CC2)nc(Nc2ccccc2)n1 [CYPRODINIL] | 76.8 (≈ 341 µM) | 52.4 (≈ 233 µM) | – | – |
| CC(Cc1ccc(C(C)(C)C)cc1)CN1C[C@@H](C)O[C@@H](C)C1 (stereo not given in full) [FENPROPIMORPH] | 0.2 (≈ 0.659 µM) | 0.4 (≈ 1.32 µM) | – | – |
| O=[N+]([O-])c1cc(C(F)(F)F)c(Cl)c([N+](=O)[O-])c1Nc1ncc(C(F)(F)F)cc1Cl [FLUAZINAM] | 24 (≈ 51.6 µM) | 50.6 (≈ 109 µM) | – | – |
| COC(=O)N(OC)c1ccccc1COc1ccn(-c2ccc(Cl)cc2)n1 [PYRACLOSTROBIN] | 1.6 (≈ 4.13 µM) | 1.9 (≈ 4.9 µM) | 0.03 | 0.04 |
| CC(C)(C)C(O)(CCc1ccc(Cl)cc1)Cn1cncn1 (stereo not given) [TEBUCONAZOLE] | 1.3 (≈ 4.22 µM) | 0.7 (≈ 2.27 µM) | – | – |
| COC(=O)NC(=S)Nc1ccccc1NC(=S)NC(=O)OC [THIOPHANATE METHYL] | 1.5 (≈ 4.38 µM) | 1.7 (≈ 4.96 µM) | – | – |
| CN(C)C(=S)SSC(=S)N(C)C [THIRAM] | 13.8 (≈ 57.4 µM) | 26.8 (≈ 111 µM) | – | – |
